# Values joined by “and” are separate entries in the source; they are usually repeats but may differ in a detail not shown here. Identical values can stand only once.
# Tests used:
# [1] = test system: phenylalanine hydroxylase (PAH); experiment: PAH expression in liver and heart (western blotting, immunofluorescence); type: in vivo, rat
# Method: Immunofluorescence staining was performed on tissue sections to detect phenylalanine hydroxylase (PAH), prostaglandin-endoperoxide synthase 2 (PTGS2), and reactive oxygen species (ROS). Primary antibodies against PAH and PTGS2 were used, while ROS was detected using the DCFH-DA probe. Nuclei were counterstained with DAPI. Images were captured using a fluorescence microscope.
# Protein was extracted from liver or heart tissue samples (30 mg) using lysis buffer. Total protein concentration was determined using a BCA protein assay kit (Thermo Fisher Scientific, USA). Equal amounts of protein from each sample were separated on 10–12% SDS-PAGE gels and transferred to PVDF membranes. Membranes were blocked with quick blocking buffer for 30 min, then incubated with anti-PAH primary antibody (1:1000 dilution) overnight at 4 °C. After washing, membranes were incubated with a secondary antibody for 1 h at 37 °C. Protein bands were visualized using an Odyssey infrared imaging system (JS-1070, Shanghai Peiqing Science & Technology Co., Ltd, China). Band intensities were quantified using ImageJ software.
# [2] = test system: DOX-induced CHF rats; experiment: Serum biochemical parameters (BNP, CK, LDH, ALT, AST) by ELISA kits; type: in vivo, rat; conditions: DOX group, experiment I
# Method: Serum biochemical parameters including brain natriuretic peptide (BNP), creatine kinase (CK), lactate dehydrogenase (LDH), alanine aminotransferase (ALT), and aspartate aminotransferase (AST) were measured using commercial ELISA kits (Nanjing Jiancheng Bioengineering Institute, Nanjing, China) according to the manufacturer's instructions. Superoxide dismutase (SOD), and malondialdehyde (MDA) levels in liver and heart tissues were measured using assay kits from […] Biotechnology (Changsha, China). Phenylalanine and tyrosine concentrations in the cell were determined using an ELISA kit from Abmart (Shanghai, China).
# [3] = test system: AML12 cells; type: cell-based, mouse
# Method: (§1) Mouse hepatocellular cell lines (AML12), purchased from the Shanghai Cell Bank of Chinese Academy of Sciences (Shanghai, China), were cultured in Dulbecco’s Modified Eagle Medium (DMEM) supplemented with 10% fetal bovine serum (FBS) and 2 mM L-glutamine and 1% pyruvate and maintained at 37 °C in a […], 5% CO2 incubator. Cells were seeded at a density of 5 × 10^5 cells/well in 6-well plates. […] Cells’ survival rate was detected by Cell Counting Kit-8 (CCK8) Reagents (Thermo Scientific, Singapore).
# [4] = test system: DOX-induced chronic heart failure (CHF) rat model; experiment: Echocardiography (LVEF%, LVFS%) in DOX-induced CHF rats; type: in vivo; conditions: DOX group, cumulative 15 mg/kg, day 39
# Method: Experiment I, 48 rats were randomly divided into six groups: (1) the CON group; (2) the DOX group; (3) the DOX + enalapril (ENP, positive control, 1.8 mg/kg) group; (4) the DOX + SXT at low dose group (4 g/kg); (5) the DOX + SXT at middle dose group (8 g/kg); and […] the DOX + SXT at high dose group (16 g/kg). Except those rats in the CON group, the remaining rats received DOX at a 2.5 mg/kg per injection to a cumulative dose of 15 mg/kg. The dose of SXT for the low-dose group was set at 4 g/kg, based on the minimum human clinical daily dose (48.5 g, Table S2) converted to an equivalent rat dose using body surface area normalization (48.5 g/70 kg × 6.3 ≈ 4.4 g/kg, rounded to 4 g/kg). To evaluate a clear dose–response relationship, the medium and high doses were established at 8 g/kg and 16 g/kg, respectively, corresponding to 2 fold and 4 fold the low dose. This gradient dosing strategy is consistent with the Technical Guidelines for Pharmacodynamic Studies of Traditional Chinese Medicine and the Technical Guidelines for General Pharmacology Studies of Traditional Chinese Medicine and Natural Drugs, and is further supported by our previous study on the effective dose range of SXT in a rat model of doxorubicin-induced chronic heart failure. Heart function was monitored by echocardiography analysis at day 39, and the CHF model was considered to be successfully established when the left ventricular ejection fraction (LVEF%) values were reduced to 50%. Urinary samples were collected at five time points (0, 10, 20, 30, and 39 d), while fecal samples were collected before the rats were euthanized. Subsequently, the rats were anesthetized, and blood samples and heart and liver tissues were collected. All bio-samples were stored at − 80 °C until analysis.
# Experiment II was conducted to specifically confirm the exacerbated cardiac abnormality of phenylalanine in the DOX-induced CHF rats. […] Heart function was detected as in the experiment I.
# Echocardiographic (ECG) measurements were performed using M-mode tracings and continuous Doppler with a Vevo 2100 system (Visual Sonics, Toronto, ON, Canada). Rats were anesthetized with isoflurane prior to imaging. Cardiac function indices including left ventricular ejection fraction (LVEF%) and left ventricular fractional shortening (LVFS%) were measured and recorded.
# [5] = test system: gut microbiota; experiment: 16S rRNA sequencing of gut microbiota; type: in vivo, rat; conditions: DOX group vs CON group
# Method: 16S rRNA sequencing and bioinformatics analysis were performed by OEbiotech Co. Ltd. (Shanghai, China). Total genomic DNA was extracted from cecal contents. The V3–V4 hypervariable region of the 16S rRNA gene was amplified using primers 343F and 798R. Clean reads were processed to remove primer sequences and clustered into operational taxonomic units (OTUs) at 97% similarity using Vsearch software. OTUs were annotated by comparison against the […]. Alpha diversity was assessed using the Simpson index. Beta diversity was evaluated using Bray–Curtis distances and visualized by principal coordinates analysis (PCoA). Differential abundance analysis of gut microbiota associated with DOX-induced CHF was performed using linear discriminant analysis effect size (LEfSe) and random forest algorithms.
# [6] = test system: phenylalanine metabolism; experiment: Phenylalanine and tyrosine levels in rat serum, liver and heart tissues (LC/MS); type: in vivo; conditions: DOX-induced CHF rats, day 39
# Method: Phenylalanine and tyrosine in the different rat bio-samples were analyzed by LC/MS using an Agilent 1290 Ultra high-performance liquid chromatography (UHPLC) and an Agilent 6460 triple-quadrupole tandem mass spectrometer (QQQ-MS) (Agilent Inc, USA). Data were acquired by using an Agilent Zorbax SB-C18 column (3.0 × 150 mm, 5 μm) as described previously.
# [7] = test system: AML12 cells; experiment: AML12 cell viability (CCK8); type: cell-based
# Method: as §1
# [8] = test system: heart tissues; experiment: Transmission electron microscopy of heart tissue; type: in vivo, rat; conditions: experiment II; DOX alone, co-treatments vs DOX
# Method: Freshly excised heart tissues were immediately fixed in 2.5% glutaraldehyde at 4 °C overnight. After washing with 0.1 M cacodylate trihydrate buffer, samples were post-fixed with 1% osmium tetroxide for 1 h. Tissues were then dehydrated through a graded ethanol series, incubated in acetone, and embedded in epoxy resin. Ultrathin sections were mounted on copper grids and imaged using a Hitachi HT7800 transmission electron microscope (Tokyo, Japan).
# [9] = DOX vs CON group, experiment I, p < 0.001
# [10] = experiment II, DOX vs CON, co-treatments vs DOX
smiles,measurement,setting,value
"COc1cccc2c1C(=O)c1c(O)c3c(c(O)c1C2=O)C[C@@](O)(C(=O)CO)C[C@@H]3O[C@H]1C[C@H](N)[C@H](O)[C@H](C)O1 [DOX, Doxorubicin]",ectopic heart PAH expression,[1]; [9],significantly increased
same,liver PAH expression,[1]; [9],significantly decreased
same,PAH expression in heart tissue,[1]; [10],significantly raising
same,PAH expression in liver tissue,[1]; [10],substantially lowered
same,serum ALT and AST levels,[2],increased
same,MDA levels,[3],increase
same,SOD activity,[3],significant reduction
same,LVFS,[4],< 30% and 25.62%
same,Muribaculaceae abundance,[5],decreased
same,relative abundance of Proteobacteria,[5]; p < 0.01,significantly increased
same,phenylalanine levels in hepatic and cardiac tissues and plasma,[6],significant elevation
same,cell viability,[7],significant reduction
same,IC50,"[7]; Mus musculus, AML12, read-out: DOX concentration that caused 50% cell death (IC50)",1000 nM
same,mitochondrial ultrastructure of heart (electron microscopy),[8],"mitochondrial shrinkage, increased membrane density, and marked reduction and shortening of cristae with focal vacuolization"
